Here are results for four compounds from patent US20070203183A1, “Diaryl piperidines as CB1 modulators” (Schering Corporation, priority 2006, published 2007).

Structures are written as SMILES. Like-named read-outs stand apart in the source and are kept apart here.

The target of this test is T1, cannabinoid CB1 (Homo sapiens, UniProt P21554).
T1 construct: purchased
Description: Competition binding assay for cannabinoid CB1 affinity (3H-CP55,940 displacement, membranes). The method, then: Method for Evaluating Cannabinoid CB1 and CB2 Affinity
Non-specific binding was defined in the presence of 10 μM CP55,940. For saturation studies, concentrations of ^3H-CP55,940 ranging from 0.1-5 nM were incubated with membranes in the presence and absence of 10 μM CP55,940. Assays were terminated after incubation for 1½ hours by rapid filtration onto 0.3% polyethylenamine treated GF/C filterplates using a BRANDEL cell harvester. The plates were dried and MICROSCINT scintillation cocktail was added, after which the bound radioactivity was quantified using a TOPCOUNT scintillation counter.
The dissociation constant (Kd) of ^3H-CP55,940 at the CB1 and CB2 receptor were determined by plotting specific binding at each concentration of radioligand, and analysis by non-linear regression. For competition studies, the concentration of each drug that inhibited 50 percent of ^3H-CP55,940 binding (IC50) was determined by non-linear regression analysis of the radioligand displacement curves.

The mark [1] stands for this setting: competition with 0.5 nM 3H-CP55,940, Ki by Cheng-Prusoff, approximate values, receptor subtype not given, read-out: Ki values.

T1 sequence (P21554 whole entry): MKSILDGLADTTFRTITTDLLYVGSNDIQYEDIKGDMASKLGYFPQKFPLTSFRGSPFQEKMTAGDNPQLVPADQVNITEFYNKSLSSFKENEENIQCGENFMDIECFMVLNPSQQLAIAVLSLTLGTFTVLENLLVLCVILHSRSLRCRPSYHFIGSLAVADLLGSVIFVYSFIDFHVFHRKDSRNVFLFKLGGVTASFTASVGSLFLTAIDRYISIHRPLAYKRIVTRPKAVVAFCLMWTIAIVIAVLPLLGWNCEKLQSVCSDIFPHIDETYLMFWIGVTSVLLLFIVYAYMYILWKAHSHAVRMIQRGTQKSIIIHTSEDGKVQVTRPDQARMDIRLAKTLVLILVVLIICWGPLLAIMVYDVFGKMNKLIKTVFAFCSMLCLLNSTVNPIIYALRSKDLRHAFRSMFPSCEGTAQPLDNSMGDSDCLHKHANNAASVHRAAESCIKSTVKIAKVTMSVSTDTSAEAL

Consider `O=S(=O)(NC[C@@H]1CC[C@@H](c2ccc(Cl)cc2Cl)N(c2ccc(Cl)cc2)C1)c1cccc(Cl)c1` [Example 120], for which the Ki under setting [1] was about 2 nM.
On the same count and under the same terms, to `O=S(=O)(NC[C@@H]1CC[C@@H](c2ccc(Cl)cc2Cl)N(c2ccc(Cl)cc2)C1)c1cc(F)ccc1F` [Example 112] belongs about 2 nM; to `O=S(=O)(NC[C@@H]1CC[C@@H](c2ccc(Cl)cc2Cl)N(c2ccc(Cl)cc2)C1)c1ccccc1` [Example 86], about 9 nM.
Turning to `N#Cc1ccc(C(=O)NC[C@@H]2CC[C@@H](c3ccc(Cl)cc3Cl)N(c3ccc(Cl)cc3)C2)cc1` [Example 91], the inhibition constant (Ki) is about 4 nM.
